Earlier results as cited in patent publication US12324827B2, “Combination therapy for the treatment of migraines” (The University of Chicago, priority 2019, dated 2025).

Experiments:
[1] = system: trigeminal system neurons; conditions: in vivo; cited from earlier work
spreading depression = conditions: SD from KCl; pretreatment; cited from earlier work

Row | Compound | CSD-based activation of Aδ fibers and C-fiber afferents in the trigeminal ganglion [1] | activation and sensitization of high threshold trigeminal system neurons after CSD [1] | direct inhibition of CSD [1] | wide dynamic range neurons of the caudal trigeminal nucleus [1] | protection against SD over sham treatment (spreading depression)
1 | TEV-48125: CGRP-mAb fremanezumab, humanized monoclonal anti-CGRP antibody | reduce CSD-based activation of Aδ fibers but not activation of C-fiber afferents | inhibited activation and sensitization | did not directly inhibit CSD | had no effect | 
2 | CC1(C)O[C@@H]2[C@@H](CO[C@@]3(COS(N)(=O)=O)OC(C)(C)O[C@@H]23)O1 [topiramate, reference compound] |  |  |  |  | no more than a two-fold level of protection
